From PubChem BioAssay (NCI)
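A five-concentration, 48-hour dose response in 96-well plates underlies each endpoint, interpolated linearly between surrounding concentrations. Abbreviation: GI50, concentration required for 50% inhibition of growth. At the TGI there is no net growth.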

How the values were obtained:
Assay in all cases: inhibition of tumour cell growth, NCI panel, 48 h
NCI-H226 lung = tested on: NCI-H226 lung
MALME-3M melanoma = tested on: MALME-3M melanoma
RPMI-8226 leukemia = tested on: RPMI-8226 leukemia
NCI-H522 lung = tested on: NCI-H522 lung
K-562 leukemia = tested on: K-562 leukemia
OVCAR-8 ovarian = tested on: OVCAR-8 ovarian
MDA-MB-231 breast = tested on: MDA-MB-231 breast
HCT-116 colon = tested on: HCT-116 colon
OVCAR-5 ovarian = tested on: OVCAR-5 ovarian
KM12 colon = tested on: KM12 colon
HCC-2998 colon = tested on: HCC-2998 colon
MDA-MB-435 = tested on: MDA-MB-435
CCRF-CEM leukemia = tested on: CCRF-CEM leukemia
MCF7 breast = tested on: MCF7 breast
A549 NSCLC = tested on: A549 NSCLC
DU-145 prostate = tested on: DU-145 prostate
CAKI-1 renal = tested on: CAKI-1 renal
HS 578T breast = tested on: HS 578T breast
MOLT-4 leukemia = tested on: MOLT-4 leukemia
SN12C renal = tested on: SN12C renal
SNB-75 CNS = tested on: SNB-75 CNS
U251 CNS = tested on: U251 CNS
SF-295 CNS = tested on: SF-295 CNS
BT-549 breast = tested on: BT-549 breast
SK-OV-3 ovarian = tested on: SK-OV-3 ovarian
PC-3 prostate = tested on: PC-3 prostate
SF-268 CNS = tested on: SF-268 CNS
UACC-62 melanoma = tested on: UACC-62 melanoma
RXF 393 renal = tested on: RXF 393 renal
NCI-H460 lung = tested on: NCI-H460 lung
EKVX NSCLC = tested on: EKVX NSCLC
SK-MEL-2 melanoma = tested on: SK-MEL-2 melanoma
MDA-MB-468 breast = tested on: MDA-MB-468 breast
NCI/ADR-RES ovarian = tested on: NCI/ADR-RES ovarian
COLO 205 colon = tested on: COLO 205 colon
786-0 renal = tested on: 786-0 renal
HL-60(TB) leukemia = tested on: HL-60(TB) leukemia
IGROV1 ovarian = tested on: IGROV1 ovarian
UACC-257 melanoma = tested on: UACC-257 melanoma
ACHN renal = tested on: ACHN renal
SR leukemia = tested on: SR leukemia
SK-MEL-5 melanoma = tested on: SK-MEL-5 melanoma
HOP-62 NSCLC = tested on: HOP-62 NSCLC
TK-10 renal = tested on: TK-10 renal
T-47D breast = tested on: T-47D breast
LOX IMVI melanoma = tested on: LOX IMVI melanoma
OVCAR-3 ovarian = tested on: OVCAR-3 ovarian
SF-539 CNS = tested on: SF-539 CNS
M14 melanoma = tested on: M14 melanoma
NCI-H23 lung = tested on: NCI-H23 lung
HCT-15 colon = tested on: HCT-15 colon
A498 renal = tested on: A498 renal
SK-MEL-28 melanoma = tested on: SK-MEL-28 melanoma
SNB-19 CNS = tested on: SNB-19 CNS
HT29 colon = tested on: HT29 colon
OVCAR-4 ovarian = tested on: OVCAR-4 ovarian
UO-31 renal = tested on: UO-31 renal
SW-620 colon = tested on: SW-620 colon
HOP-92 NSCLC = tested on: HOP-92 NSCLC

Cc1cc2c(cc1Cl)C(=O)/C(=C/c1ccccc1)O2
GI50 (NCI-H226 lung): 12.8 µM
TGI (NCI-H226 lung): 31.5 µM
GI50 (MALME-3M melanoma): 17.4 µM
TGI (MALME-3M melanoma): 31.7 µM
GI50 (RPMI-8226 leukemia): 22.4 µM
TGI (RPMI-8226 leukemia): > 100 µM
GI50 (NCI-H522 lung): 13 µM
TGI (NCI-H522 lung): 30.7 µM
GI50 (K-562 leukemia): 27.6 µM
TGI (K-562 leukemia): > 100 µM
GI50 (OVCAR-8 ovarian): 16.5 µM
TGI (OVCAR-8 ovarian): 44.1 µM
GI50 (MDA-MB-231 breast): 16.5 µM
TGI (MDA-MB-231 breast): 39.4 µM
GI50 (HCT-116 colon): 15.4 µM
TGI (HCT-116 colon): 62.9 µM
GI50 (OVCAR-5 ovarian): 23.2 µM
TGI (OVCAR-5 ovarian): > 100 µM
GI50 (KM12 colon): 31.3 µM
TGI (KM12 colon): > 100 µM
GI50 (HCC-2998 colon): 31.6 µM
TGI (HCC-2998 colon): > 100 µM
GI50 (MDA-MB-435): 21.5 µM
TGI (MDA-MB-435): 59.6 µM
GI50 (CCRF-CEM leukemia): 18.7 µM
TGI (CCRF-CEM leukemia): 49.2 µM
GI50 (MCF7 breast): 2.7 µM
TGI (MCF7 breast): 57.4 µM
GI50 (A549 NSCLC): 16.6 µM
TGI (A549 NSCLC): 37.8 µM
GI50 (DU-145 prostate): 16.9 µM
TGI (DU-145 prostate): 33.7 µM
GI50 (CAKI-1 renal): 15.5 µM
TGI (CAKI-1 renal): 31.1 µM
GI50 (HS 578T breast): 29.2 µM
TGI (HS 578T breast): > 100 µM
GI50 (MOLT-4 leukemia): 17.9 µM
TGI (MOLT-4 leukemia): 46 µM
GI50 (SN12C renal): 13.9 µM
TGI (SN12C renal): 33.1 µM
GI50 (SNB-75 CNS): 9.27 µM
TGI (SNB-75 CNS): 57.7 µM
GI50 (U251 CNS): 13.1 µM
TGI (U251 CNS): 28.7 µM
GI50 (SF-295 CNS): 26 µM
TGI (SF-295 CNS): > 100 µM
GI50 (BT-549 breast): 16.7 µM
TGI (BT-549 breast): 45.3 µM
GI50 (SK-OV-3 ovarian): 62.3 µM
TGI (SK-OV-3 ovarian): > 100 µM
GI50 (PC-3 prostate): 11.1 µM
TGI (PC-3 prostate): 70.6 µM
GI50 (SF-268 CNS): 25.1 µM
TGI (SF-268 CNS): 89.2 µM
GI50 (UACC-62 melanoma): 15.9 µM
TGI (UACC-62 melanoma): 49.9 µM
GI50 (RXF 393 renal): 15 µM
TGI (RXF 393 renal): 33.6 µM
GI50 (NCI-H460 lung): 16 µM
TGI (NCI-H460 lung): 35.6 µM
GI50 (EKVX NSCLC): 16.5 µM
TGI (EKVX NSCLC): 33.1 µM
GI50 (SK-MEL-2 melanoma): 20.6 µM
TGI (SK-MEL-2 melanoma): 72 µM
GI50 (MDA-MB-468 breast): 13.2 µM
TGI (MDA-MB-468 breast): 40.5 µM
GI50 (NCI/ADR-RES ovarian): 15.7 µM
TGI (NCI/ADR-RES ovarian): 38.6 µM
GI50 (COLO 205 colon): 24.6 µM
TGI (COLO 205 colon): 51.9 µM
GI50 (786-0 renal): 20 µM
TGI (786-0 renal): 40.5 µM
GI50 (HL-60(TB) leukemia): 22.3 µM
TGI (HL-60(TB) leukemia): 46.7 µM
GI50 (IGROV1 ovarian): 14 µM
TGI (IGROV1 ovarian): 30.9 µM
GI50 (UACC-257 melanoma): 23.4 µM
TGI (UACC-257 melanoma): > 100 µM
GI50 (ACHN renal): 15.1 µM
TGI (ACHN renal): 29 µM
GI50 (SR leukemia): 20.9 µM
TGI (SR leukemia): 54.8 µM
GI50 (SK-MEL-5 melanoma): 15.6 µM
TGI (SK-MEL-5 melanoma): 30.9 µM
GI50 (HOP-62 NSCLC): 22.8 µM
TGI (HOP-62 NSCLC): 52.8 µM
GI50 (TK-10 renal): 23.5 µM
TGI (TK-10 renal): 40.6 µM
GI50 (T-47D breast): 13.6 µM
TGI (T-47D breast): 35.3 µM
GI50 (LOX IMVI melanoma): 1.9 µM
TGI (LOX IMVI melanoma): 4.19 µM
GI50 (OVCAR-3 ovarian): 25.5 µM
TGI (OVCAR-3 ovarian): 93.1 µM
GI50 (SF-539 CNS): 15.7 µM
TGI (SF-539 CNS): 29.1 µM
GI50 (M14 melanoma): 26 µM
TGI (M14 melanoma): > 100 µM
GI50 (NCI-H23 lung): 15.4 µM
TGI (NCI-H23 lung): 44.8 µM
GI50 (HCT-15 colon): 14.2 µM
TGI (HCT-15 colon): 85.4 µM
GI50 (A498 renal): 49.3 µM
TGI (A498 renal): > 100 µM
GI50 (SK-MEL-28 melanoma): 23.7 µM
TGI (SK-MEL-28 melanoma): 76.3 µM
GI50 (SNB-19 CNS): 26.5 µM
TGI (SNB-19 CNS): > 100 µM
GI50 (HT29 colon): 29 µM
TGI (HT29 colon): > 100 µM
GI50 (OVCAR-4 ovarian): 16.8 µM
TGI (OVCAR-4 ovarian): 61.3 µM
GI50 (UO-31 renal): 13.9 µM
TGI (UO-31 renal): 26.8 µM
GI50 (SW-620 colon): 16.8 µM
TGI (SW-620 colon): 48.3 µM
GI50 (HOP-92 NSCLC): 17.7 µM
TGI (HOP-92 NSCLC): 44.6 µM
